From a melting point compilation (Tetko et al.; mined from patent text by program, amines drawn as free bases though some values may be those of a salt)
Residues, ends and D or L forms follow the SMILES beside them. *: point of attachment. Cbz = O=C(OCc1ccccc1)*

| SMILES | melting point [°C] |
| --- | --- |
| CCCc1[nH]c2cc(C(=O)OC)ccc2c1C(=O)C1CC1 | 152 to 154 |
| CCCC(=O)/C=C/c1cn(-c2ccccc2)nc1OCc1ccc(OCc2nc(-c3ccco3)oc2C)c(OC)c1 | 167 to 168 |
| CS(=O)c1ccc(-c2coc3ccc(-c4nnc(O)o4)cc23)cc1 (stereo unspecified) | 234 to 237 |
| COc1ccc2c(c1)CCC(CN1CCC(O)(c3ccccc3)CC1)C2=O (stereo unspecified) | 163 to 165 |
| Cc1cc(CCc2cc(C)c(O)c(C)c2Br)c(Br)c(C)c1O | 191 to 194 |
| COc1ccc2c(=O)c(N)coc2c1 | 143 to 146 |
| CONc1nc(Nc2ccc(C#N)cc2)nc(Oc2c(C)cc(C#N)cc2C)c1Br | 185 to 186 |
| CCCCOC(=O)NCC(=O)NCC1C2CCC(O2)C1CC=CCCCC(=O)O (stereo unspecified) | 104 to 106 |
| O=C(O)c1cnc(CO)s1 | 193 |
| CCCc1c(OCCCCCCc2ccccc2CCC(=O)O)ccc2c1OCCC2=O | 98 to 99 |
| CC(C)(Oc1ccc(CC(=O)Nc2ccc(C(F)(F)F)cc2)cc1)C(=O)O | 197 |
| Cc1ccc(C(=O)C=CN(C)C)o1 | 123 to 125 |
| C=CCOC(=O)[C@@H]1CCC[C@@H]1C(N)=O (relative stereo) | 35 |
| Cc1cccc(-c2[nH]c(C(C)C)nc2-c2ccc(F)c(-c3ccc(S(C)=O)nc3)c2)n1 (stereo unspecified) | 100 to 102 |
| CCN(C)C(=O)Nc1ccc2c(c1Cl)C(c1ccccc1F)=NCC(=O)N2C | 184 to 186 |
| COC(=O)Cc1ccc(OCC(C)NCC(O)c2cccc(F)c2)cc1 (stereo unspecified) | 52 |
| CN(C)CCCOc1ccc(-c2nnc(-c3ccc(-c4ccccc4)cc3)o2)cc1 | 130 to 132 |
| CCCCCCCCCCCCNC(=O)COc1ccc(OC(=O)c2ccccc2)cc1[N+](=O)[O-] | 110 to 111 |
| CCOC(=O)c1cc(=O)c2cccc(Br)c2o1 | 124 to 126 |
| CC(C)(C)OC(=O)c1ccc(C=NO)cc1 | 113 to 114 |
| CCCCC1Oc2ccc(Cl)cc2N(CC(O)CO)C1=O (stereo unspecified) | 69.5 |
| Cc1nc[nH]c1CSCCNC(=N)NCC(C)SCc1[nH]cnc1C (stereo unspecified) | 173 to 175 |
| CCCc1c(O[C@@H]2CCC[C@H](Sc3ccc(C(=O)CCC(=O)O)cc3)C2)ccc(C(C)=O)c1O (relative stereo) | 101 to 103 |
| CC(=O)NC(C)(C)c1ccc(CO)cc1 | 126 to 129 |
| CCOC(=O)/C(=N\OC12CCC(CC1)CC2)c1csc(N)n1 | 139 to 140 |
| O=C(O)C1Cc2ccccc2C1 | 130 |

| SMILES | melting point [°C] |
| --- | --- |
| O=C(c1cccs1)c1cnn2c(-c3cccc(-c4ccc(CO)cc4)c3)ccnc12 | 106 to 110 |
| COc1cc(C2CCN(C(=O)C(C)(C)N)CC2)ccc1Nc1ncc2ccc(-c3ccccc3OC)n2n1 | 81 to 89 |
| CCOC(=O)C(Cc1cc2ccccc2[nH]c1=O)NC(=O)c1ccc(OC)cc1 (stereo unspecified) | 206 to 208 |
| CN(C)Cc1cc2ccc(-c3nnc(CSCCOc4ccccc4)o3)cc2n1S(C)(=O)=O | 127 to 130 |
| Nc1ccc(F)c(Cl)c1F | 58 |
| COC(=O)CCCCC(=O)Nc1c(I)c(C(=O)O)c(I)c(N(C)C(C)=O)c1I | 229 to 232 |
| CS(=O)(=O)c1ccc(-c2cnn(Cc3cc4ccccc4s3)c(=O)c2-c2ccc(F)cc2)cc1 | 93 to 96 |
| CCc1nc2c(C)cc(C)nc2n1Cc1ccc(-c2ccccc2C(=O)NN)cc1 | 139 to 142 |
| O=C(COc1ccc(Cl)cc1)c1ccccc1 | 81 to 86 |
| CCOCn1c(-c2ccc(Cl)cc2)c(S(=O)(=O)c2ccc(Cl)cc2)c(Br)c1C(F)(F)F | 107 to 112 |
| Cc1ccc(SC(Cl)=C(C(Cl)=C(Cl)Cl)[N+](=O)[O-])cc1 | 110 to 111 |
| Fc1ccc(-c2cc(Cl)nc3c2CCCC3)cc1 | 111 to 112 |
| COc1ccc(CSc2ccc([N+](=O)[O-])cc2CO)cc1 | 101 to 102 |
| CC(=O)OC1CC2=CCC3C4CCC(C(C)CO)C4(C)CCC3C2(C)C(O)C1 (stereo unspecified) | 121 |
| N#CSc1ccc(N)c(C(=O)c2ccccn2)c1 | 102 to 104 |
| O=C(O)CNC(=O)c1nc(Cl)c2ccc(OCc3ccccc3)cc2c1O | 210 to 211 |
| CN1CCNCCNCCCNCCNCC1 | 85 to 87 |
| CC(C)C1(C)N=C2c3nc4occc4cc3C(=O)N2C1=O (stereo unspecified) | 193 to 205 |
| CC(=O)c1ccc2cc(O)ccc2c1O | 195 to 200 |
| CCOC(=O)C(=Cc1cccn2cc(Br)nc12)N=[N+]=[N-] | 149 to 151 |
| CCCCc1nc(C(=O)C(C)(C)C)c(C#N)[nH]1 | 135 to 137 |
| CC(C)(C)OC(=O)NC1Cc2ccccc2C1Oc1ccccc1 (stereo unspecified) | 99 to 101 |
| CN1CCN(c2ccc([N+](=O)[O-])c(N)c2)CC1 | 109 to 110 |
| CCc1nc2c(C)cc(C)nc2n1Cc1ccc(C(=C(Cl)C(=O)O)c2ccccc2)cc1 | 120 to 125 |
| CS(=O)(=O)c1ccc(-n2nc(CNC(=O)NC34CC5CC(CC(C5)C3)C4)cc2-c2ccccc2)cc1 | 150 to 155 |
| COc1ccc2c(c1)-c1cc(OC)ccc1C2=O | 123 to 125 |

| SMILES | melting point [°C] |
| --- | --- |
| COc1cc(F)ccc1C(F)C1CCCCn2c1nc(-c1ccncn1)cc2=O (racemic) | 228 to 230 |
| CC(NSc1nc2ccccc2s1)c1ccccc1 (stereo unspecified) | 50 to 53 |
| COC(=O)CCc1cc(C)c(O)c(C)c1 | 70 to 83 |
| C=CCOc1ccc(OC(C(O)C(C)(C)C)n2cncn2)cc1 (stereo unspecified) | 85 |
| ClCc1ccc(OCc2coc(-c3ccccc3)n2)cc1 | 129 to 130 |
| COc1ccc(-c2cc(C(F)(F)F)n3ncc(C(=O)Nc4cccc(S(=O)(=O)N5CCOCC5)c4)c3n2)cc1 | 203 |
| CCOP(=O)(OCC)C(CNc1nc(C)cc(Oc2ccc(Cl)cc2Cl)n1)P(=O)(OCC)OCC | 76 to 77 |
| CC(=O)Nc1c([N+](=O)[O-])cc(C)c(OC(F)F)c1C | 184 to 185 |
| Cc1cc(C)nc(Nc2ccc(OC(F)F)cc2)n1 | 81 to 82 |
| Cc1cn(-c2ccc3c(c2)c2ccccc2n3-c2ccccc2)c(-c2nc(C)cn2-c2ccc3c(c2)c2ccccc2n3-c2ccccc2)n1 | 245 to 253 |
| CCCNC(=Nc1ccc(Cl)cc1)Nc1ncccc1OCc1c(F)cccc1F | 99 to 100 |
| Cc1cc(C)c(NC(=O)N(Cc2cc3ccccc3c3ccccc23)C2CCCCC2)c(C)c1 | 125 to 128 |
| Cc1ccc2c(c1)c(-c1ccc(F)cc1)c(Cl)n2C1CCN(CCN2CCN(C(C)C)C2=O)CC1 | 127 to 130 |
| COC(=O)[C@H](Cc1ccccc1)NC(=O)[C@H](CC(C)C)NC(=O)OCc1ccccc1 (Cbz-Leu-Phe-OMe) | 91 to 93 |
| Cc1ccc(-c2[nH]nc(CO)c2-c2ccc(S(N)(=O)=O)cc2)cc1 | 130 |
| Cc1cccc(C)c1Oc1nc(Cl)nc(Oc2c(C)cccc2C)n1 | 161 to 162 |
| Fc1cccc(F)c1C1=NC(C2(OC(F)(F)F)C=CC(c3ccccc3)=CC2)CS1 (stereo unspecified) | 85 to 86 |
| CCNc1nc(C)c(-c2ccnc(Nc3ccc(N4CCOCC4)c(OC)c3)n2)s1 | 224 to 226 |
| CCOc1ccn(C2OC(CO)C(O)C2O)c(=O)n1 (stereo unspecified) | 110 to 114 |
| CCCCc1nccn1Cc1ccc2oc(-c3ccccc3C(=O)O)c(Br)c2c1 | 138 to 145 |
| CC1CC(=O)NN=C1c1ccc2c(c1)N(CC(=O)N1CCN(CCO)CC1)CS2=O (stereo unspecified) | 231 to 233 |
| CCOC(=O)NNC(=O)Nc1c(F)c(F)c(F)c(F)c1F | 180 to 182 |
| COC(=O)c1cscc1Nc1ccc(F)cc1[N+](=O)[O-] | 164 |
| CCN(CC)c1ccc(-c2cc(-c3ccc(C(=O)O)cc3)ccc2CC(O)CO)cc1C(C)(C)C (stereo unspecified) | 130 |
| Cc1ccc(C(=O)Nc2ccc(C(=O)CCC(=O)O)cc2)cc1 | 257 to 258 |
| CCOC(=O)C=C(C)Nc1c[nH]nc1-c1ccc(Cl)cc1 | 145 to 146 |

| SMILES | melting point [°C] |
| --- | --- |
| COc1cccc(OC)c1Cc1c(O)ncnc1O | > 245 |
| CC(C)C(=O)c1cn(-c2c(Cl)cc(C(F)(F)F)cc2Cl)nc1C#N | 168 to 169 |
| CSC(=S)N1CCN(Cc2ccccc2N(C)C)CC1 | 90 to 91 |
| Cc1c(F)c(F)cc(C(=O)O)c1Cl | 121 to 122 |
| O=C(SCCC(=O)N1C(c2ccccc2O)CC[C@H]1C(=O)N[C@@H](Cc1ccccc1)C(=O)O)c1ccccc1 (stereo partly specified) | 72 to 102 |
| CCN1CCCC1CNC(=O)CCCOc1ccc2nc3[nH]c(=O)[nH]c3cc2c1 (stereo unspecified) | 233 to 237 |
| CNc1nc2c(Cc3cccnc3)c(C)c(O)c(C)c2s1 | 236 to 238 |
| O=C1OC(O)c2cccc(Cl)c21 (stereo unspecified) | 140 to 145 |
| CCCCCCCCCCNC(=O)c1ccccc1N(CC(=O)OC)CC(=O)OC | 35 to 38 |
| C[Si](C)(C)c1cccc2cc(C(=O)Nc3ccc(N4CCC4)nc3)n(Cc3cccc(F)c3)c12 | 160 to 162 |
| CS(=O)(=O)N1Cc2ccccc2C1 | 131 to 132 |
| Cc1cnc(-c2ncn3c2[C@@H]2CCCN2C(=O)c2c(Cl)cccc2-3)o1 | 228 to 230 |
| OCC1OC(n2cnc3c(N4CCOCC4)ncnc32)CC1F (stereo unspecified) | 175 to 178 |
| CNc1c([N+](=O)[O-])ccc(Sc2ccccc2)c1Cl | 79 |
| N#CC1=C(N)Oc2c(ccc3cnccc23)C1c1cccc([N+](=O)[O-])c1 (stereo unspecified) | 239 to 243 |
| CN1CCCCc2cc(Nc3ncc(Cl)c(N[C@@H]4CCCC[C@H]4NS(C)(=O)=O)n3)ccc21 | 102 to 104 |
| COC(=O)C(=O)c1ccc(OCCOc2ccc3ccccc3c2)c(Cl)c1 | 133 to 134 |
| COc1ccc2c(c1)C(=O)C(Cc1c[nH]c3ccccc13)CO2 (stereo unspecified) | 121 to 123 |
| CC(C)c1cc(-c2ccc(F)cc2)c(OCc2ccccc2)c(C(C)C)c1 | 65 to 67 |
| Cc1cc(-c2[nH]c3ccc(C#N)cc3c2C)cc(C)c1O | 185 to 186 |
| Cc1ccc(-n2nc(O)c3[nH]c4cc(Cl)cc(Cl)c4c(=O)c3c2=O)c(C)c1 | 335 to 336 |
| O=C(Nc1ccc2c(c1)C=CC2)C(F)(F)F | 132 |
| Cc1ccc(-c2cccc(C(N)=O)c2)cc1 | 200 to 205 |
